Holding throughout (type): in vivo, C57B1/6J mice
Assay [1] in a line: Body weight loss in NASH mice. The following applies: oral administration, p<0.05 vs. vehicle. The source says: (§1) Early Steatosis Model: C57B1/6J mice (22-39 days old) mice were used for the study. Mice were fed normal chow food (Lab Diet, 5P14Prolab Animal Diet, PMI Nutritional International, Brentwood, Mo., Cat# RMH 2500) or 58% high fat diet (HFD, 58 kcal % fat and corn starch with purple dye, Research Diets, New Brunswick, N.J., Cat# D12330 equivalent to Western diet) for 120-150 days. […] This group is referred to as the HFD-low body group in FIG. 1A (insulin & liver fat accumulation˜normal). On the other hand, one fifth of the mice gained 60-70% higher body weight (compared to normal chow fed mice) while on the same HFD diet (NASH group, very high insulin and liver fat) further shown in FIG. 1A. The majority of the mice (three fifths) gained body weight as expected on the HFD (30-40% higher than the normal chow fed mice) and is referred to as the DIO group (normal to moderately high insulin and liver fat accumulation) as shown in FIG. 1A. Control animals (n=5) representative of the HFD-low body weight and the NASH groups were sacrificed prior to starting the rest of the animals on treatment with the Compound 2 (5 or 10 mg/Kg/day). […]
(§2) Following 120-150 days on the HFD, mice in the NASH group were treated with Compound 2 (5 or 10 mg/Kg/day) or vehicle (10% Encapsin) for 42 days. […] Body weight and food intake was measured throughout the study.

The subject of assay [2] is TGFβ-1. The experiment in a line: TGFβ-1 levels in liver lysates of NASH mice.
From the text: as §1, §2

In assay [3] the test system is MCP-1. The assay is described as follows: MCP-1 in plasma and liver lysates (immunoassay). As for the experimental part: (§3) Following 120-150 days on the HFD, mice in the NASH group were treated with Compound 2 (5 or 10 mg/Kg/day) or vehicle (10% Encapsin) for 42 days. Fasting and post prandial (PP) blood draws were taken at the beginning of the study (compound treatment) to identify and confirm the NASH group and during the study to evaluate various pharmacological responses. Since the NASH mice are severely hyperinsulinemic compared to NC mice, glucose tolerance testing (GTT, measures peripheral insulin resistance) was performed to evaluate the effect of Compound 2 on improvement of peripheral insulin sensitivity. Treatment was administered for 42 days (separate experiments). Body weight and food intake was measured throughout the study.
Insulin fasting plasma samples were tested using Mercodia ultra sensitive mouse insulin ELISA: 2.5 μL EDTA plasma, ALPCO Diagnostics, Uppsala, Sweden, Cat #08-10-1150-99, LOQ (0.22-7.1 μg/L). Mouse JE/MCP-1 post prandial samples were collected at sacrifice. 12.5 μL EDTA plasma, R & D Systems, Minneapolis, Minn., Cat # MFE00, LOQ (15.6-1000 pg/mL).

Assay [4] relates to NASH mice. The experiment in a line: Serum transaminases AST and ALT in HFD-induced NASH mice (clinical chemistry panel).
From the text: (§4) Early Steatosis Model: C57B1/6J mice (22-39 days old) mice were used for the study. Mice were fed normal chow food (Lab Diet, 5P14Prolab Animal Diet, PMI Nutritional International, Brentwood, Mo., Cat# RMH 2500) or 58% high fat diet (HFD, 58 kcal % fat and corn starch with purple dye, Research Diets, New Brunswick, N.J., Cat# D12330 equivalent to Western diet) for 120-150 days. […] This group is referred to as the HFD-low body group in FIG. 1A (insulin & liver fat accumulation˜normal). On the other hand, one fifth of the mice gained 60-70% higher body weight (compared to normal chow fed mice) while on the same HFD diet (NASH group, very high insulin and liver fat) further shown in FIG. 1A. The majority of the mice (three fifths) gained body weight as expected on the HFD (30-40% higher than the normal chow fed mice) and is referred to as the DIO group (normal to moderately high insulin and liver fat accumulation) as shown in FIG. 1A. Control animals (n=5) representative of the HFD-low body weight and the NASH groups were sacrificed prior to starting the rest of the animals on treatment with the Compound 2 (5 or 10 mg/Kg/day). Liver, white adipose and muscle from the sacrificed mice were collected for histology performed on the liver tissue.
as §3
Tail blood was collected into EDTA capillary tubes (Becton, Dickinson and Company, Franklin Lakes, N.J., Cat #365973). Upon sacrifice, blood was collected by cardiac puncture using a 1 mL Syringe Tuberculin Slip Tip (Becton, Dickinson & Company, Cat #309602) and B-D25G 5/8 needle (Becton Dickinson, Franklin Lakes, N.J., Cat #305122) and saved into Microtainer brand tube with EDTA (Becton, Dickinson and Company, Cat #365973). The blood was spun for 8 minutes at 8500 rpm at 4° C. (Eppendorf, Centrifuge 5415R, New York, N.Y.). Plasma was collected and stored at −20° C. for further analyses
80 μL EDTA plasma was diluted with 80 μL Dulbecco's phosphate buffered saline (Gibco, Grand Island, N.Y., Cat #14040-133) and analyzed in Olympus AU600 (Olympus, London, UK) for the following endpoints. The lower and upper limit ranges were according to the assay values provided by the JAS Diagnostics, INC (Miami, Fla.). • Glucose (LL 94-116, UL 297-353 mg/dL, Cat # JAS GLU2-125) • Triglycerides (LL 46-102, UL 128-168 mg/dL, Cat # TRI2-125) • ALT/GPT (LL 10-34, UL 64-114 U/L, Cat # JAS ALT2-125) • AST/GOT (LL 18-46, UL 121-187 U/L, Cat # JAS AST2-125) • Multi-Chemistry calibrator (Albumin: 3.9 g/dL, Cholesterol: 212 mg/dL, • Creatinine: 4.4 mg/dL, Glucose: 220 mg/dL, Triglycerides: 116 mg/dL, Cat # JAS CAL1-5) • Multi-Chemistry control level 1 (Range: See above for each constituent, Cat # JAS CON1-5) • Multi-Chemistry control level 2 (Range: See above for each constituent, Cat # JAS CON2-5)

Assay [5] concerns NASH mice. The assay is described as follows: Hepatic steatosis / lipid accumulation in liver, Oil Red O stain image analysis.
From the text: as §4
The development of NASH was further confirmed using histological analyses of liver. The sections were analyzed for 1) hepatic steatosis 2) necroinflammation, and 3) fibrosis. Histological analyses of hepatic steatosis was assessed by quantitative image analysis of Oil Red O stain in liver sections and defined as the percentage of Oil Red ‘O’ positive area relative to the total image area.
as §3
Staining was prepared with Oil Red ‘O’ that stains fat deposits red on frozen tissues where positive staining indicates lipid accumulation. Trichrome staining was used to illuminate fibrosis; collagen deposits appear blue and positive staining indicates fibrosis.

[6] abbreviates: oral administration, NASH mice, p<0.05 vs. vehicle.

The structures appear in SMILES notation. Counter-ions that a name gives are not always drawn.

In the case of `C[C@@H]1CN(Cc2ccc(OC(F)(F)F)cc2)C[C@H](C)N1S(=O)(=O)c1cccc2c1C[C@@H](C(=O)O)C2` [Compound 2, (S)-4-[cis-2,6-Dimethyl-4-(4-trifluoromethoxy-benzyl)-piperazine-1-sulfonyl]-indan-2-carboxylic acid tosylate], the weight loss result in assay [1] is listed as “increased weight loss”. In addition, in assay [2] (10 mg/Kg/day, p<0.01, FIG. 3A), the “decrement of TGFβ levels in the liver lysates” value is listed as 49%. Further, the “levels of inflammatory marker TGFβ-1” value in assay [2] (setting [6]) is reported as “normalized levels”. Further, in assay [3] (42 days of 5 mg/kg/day, p<0.006), the “reduction of MCP-1 levels in plasma, treated vs. untreated mice” value was 34%. Besides, the “reduction of MCP-1 levels in the liver lysates, treated vs. untreated mice” value in assay [3] (42 days of 5 mg/kg/day, trend, p=0.08) worked out at 31%. Further, the “levels of plasma MCP-1” value in assay [3] (setting [6]) is on record as “normalized levels”. The “reduction in AST compared to the vehicle group” value in assay [4] (42 days of 5 mg/kg/day, p<0.02) was 43%. For the same compound, in assay [4] (42 days of 5 mg/kg/day, p<0.05), the “reduction in ALT compared to the vehicle group” value is reported as 43%. Further, the “ALT serum level, treated group” value in assay [4] (42 days of 5 mg/kg/day, vehicle 108±15, in U/L) worked out at 62±13. In addition, the “AST serum level, treated group” value in assay [4] (42 days of 5 mg/kg/day, vehicle 201±23, in U/L) was 115±19. Besides, the “levels of serum transaminases AST and ALT” value in assay [4] (oral administration, summary) is “reduced levels”. Also, the “fat accumulation in the livers of treated vs. non-treated NASH mice” value in assay [5] (42 days of 10 mg/kg/day) is “reduced fat accumulation”. The “Percent Field Area, Lipid (stained oil deposits)” value in assay [5] (HFD + Compound 2, 10 mg/kg, 42 days, liver sections, HFD + Vehicle 47.7% +/− 5.5) was determined as 16.0% +/− 7.6. The “Percent Field Area, Cytoplasm” value in assay [5] (HFD + Compound 2, 10 mg/kg, 42 days, liver sections, HFD + Vehicle 91% +/− 2.4) came to 38.6% +/− 2.3. The “reduced lipid accumulation in the liver” value in assay [5] (oral administration, NASH mice, p<0.03 vs. vehicle) is given as 32%.

Source of the values: US9463189B2 (BPV Holdings, LLC, priority 2007, dated 2016).
